Results from article PMC13026664, “Transcriptional Activation of Estrogen Receptor-Alpha and Estrogen Receptor-Beta from Elephant Shark (Callorhynchus milii)” (Genes, 2026).

Key:
elephant shark ERa3 = target: T1, elephant shark ERa3 (Callorhinchus milii, UniProt A0A1V1FR36)
T1 sequence (A0A1V1FR36 1-596): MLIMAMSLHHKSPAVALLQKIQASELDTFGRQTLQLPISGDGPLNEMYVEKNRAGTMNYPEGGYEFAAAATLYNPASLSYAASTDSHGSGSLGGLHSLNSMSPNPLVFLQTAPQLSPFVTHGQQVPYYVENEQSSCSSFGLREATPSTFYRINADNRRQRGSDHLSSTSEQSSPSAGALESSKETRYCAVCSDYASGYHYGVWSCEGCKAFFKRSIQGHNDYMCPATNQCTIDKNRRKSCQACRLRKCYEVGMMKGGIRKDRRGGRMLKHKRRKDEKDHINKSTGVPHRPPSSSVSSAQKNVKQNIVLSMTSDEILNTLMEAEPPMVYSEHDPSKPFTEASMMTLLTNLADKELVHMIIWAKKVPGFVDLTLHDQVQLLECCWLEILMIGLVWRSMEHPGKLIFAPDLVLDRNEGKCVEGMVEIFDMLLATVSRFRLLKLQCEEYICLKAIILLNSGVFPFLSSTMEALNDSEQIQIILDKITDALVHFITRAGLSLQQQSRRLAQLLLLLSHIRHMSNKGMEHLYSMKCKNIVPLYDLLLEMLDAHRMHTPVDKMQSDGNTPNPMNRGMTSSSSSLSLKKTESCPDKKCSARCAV
Description: (§1) Full-length estrogen receptors were amplified using specific forward and reverse primers designed at start and stop codons and cloned into the mammalian expression vector pcDNA3.1 (Invitrogen). In addition, ERs with a FLAG-tag added to the N-terminus were also prepared by PCR. A reporter construct, pGL4.23-4xERE, was produced by subcloning of oligonucleotides having 4xERE into the KpnI-HindIII site of pGL4.23 vector (Promega, Madison, WI, USA). All cloned DNA sequences were verified by sequencing.
(§2) Reporter gene assays using full-length ERs were performed in Human Embryonic Kidney 293 cells (HEK293 cells). HEK293 cells were seeded in 24-well plates at 5 × 10^4 cells/well in phenol-red-free Dulbecco’s modified Eagle’s medium with 10% charcoal/dextran-treated fetal bovine serum. After 24 h, the cells were transfected with 400 ng of reporter construct, 25 ng of pRL-TK (as an internal control to normalize the variation in transfection efficiency; contains the Renilla reniformis luciferase gene with the herpes simplex virus thymidine kinase promoter), and 200 ng of pcDNA3.1-estrogen receptor using polyethylenimine (PEI). After 5 h of incubation, ligands were applied to the medium at various concentrations. After an additional 43 h, the cells were collected, and the luciferase activity of the cells was measured with the Dual-Luciferase Reporter Assay System. Promoter activity was calculated as firefly (Photinus pyralis) luciferase activity/sea pansy (R. reniformis) luciferase activity. […] All experiments were performed in triplicate.
(§3) Elephant shark ERs were transfected into HEK293 cells with an ERE-driven reporter gene. […] Data are expressed as a ratio of a vehicle (DMSO) to other test chemicals. Each point represents the mean of triplicate determinations, and vertical bars represent the mean ± SEM.

elephant shark ERa2 = target: T2, elephant shark ERa2 (Callorhinchus milii, UniProt A0A1V1FR36)
T2 sequence (A0A1V1FR36 1-596): T1 sequence (A0A1V1FR36 1-596)
Description: as §1, §2, §3

elephant shark ERa1 = target: T3, elephant shark ERa1 (Callorhinchus milii, UniProt A0A1V1FR36); experiment: cell-based
T3 sequence (A0A1V1FR36 1-596): T1 sequence (A0A1V1FR36 1-596)
Description: as §1, §2, §3

elephant shark ERb = target: T4, elephant shark ERb (Callorhinchus milii, UniProt A0A1V1FJE9); experiment: cell-based
T4 sequence (A0A1V1FJE9 1-580): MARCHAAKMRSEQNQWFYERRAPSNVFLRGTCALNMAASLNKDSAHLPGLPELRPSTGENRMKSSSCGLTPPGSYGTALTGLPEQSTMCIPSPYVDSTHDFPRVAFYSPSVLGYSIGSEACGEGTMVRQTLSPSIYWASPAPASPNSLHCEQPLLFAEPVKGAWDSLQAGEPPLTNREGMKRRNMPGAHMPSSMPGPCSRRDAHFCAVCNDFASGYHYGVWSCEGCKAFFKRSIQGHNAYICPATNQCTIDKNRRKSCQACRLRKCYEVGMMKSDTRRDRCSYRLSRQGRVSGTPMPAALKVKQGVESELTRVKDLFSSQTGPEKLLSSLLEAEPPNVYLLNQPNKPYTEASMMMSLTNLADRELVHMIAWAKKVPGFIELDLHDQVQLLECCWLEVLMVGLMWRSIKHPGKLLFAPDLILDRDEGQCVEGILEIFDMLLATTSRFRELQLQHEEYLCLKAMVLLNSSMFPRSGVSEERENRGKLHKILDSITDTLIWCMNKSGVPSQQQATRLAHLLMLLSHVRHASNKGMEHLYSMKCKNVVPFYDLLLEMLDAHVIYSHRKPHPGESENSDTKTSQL
Description: as §1, §2, §3

Atlantic sea lamprey ER = conditions: cited from earlier work
[1] = test system: amphioxus steroid receptor (SR); conditions: cited from earlier work
elephant shark ERa4 = experiment: Transcriptional activation of ERa4; type: cell-based, elephant shark (Callorhynchus milii); conditions: ERa4 has a deletion in the DNA-binding domain
Description: as §1
Reporter gene assays using full-length ERs were performed in Human Embryonic Kidney 293 cells (HEK293 cells). HEK293 cells were seeded in 24-well plates at 5 × 10^4 cells/well in phenol-red-free Dulbecco’s modified Eagle’s medium with 10% charcoal/dextran-treated fetal bovine serum. […] After an additional 43 h, the cells were collected, and the luciferase activity of the cells was measured with the Dual-Luciferase Reporter Assay System. Promoter activity was calculated as firefly (Photinus pyralis) luciferase activity/sea pansy (R. reniformis) luciferase activity. The values shown are mean ± SEM from three separate experiments, and dose–response data, which were used to calculate the half-maximal response (EC50) for each steroid, were analyzed using GraphPad Prism (Version 11, GraphPad Software, Inc., San Diego, CA, USA). […]

amphioxus ER = conditions: cited from earlier work
[2] = HEK293, 43 h, read-out: Fold-Activation (±SEM)

| SMILES | Ratio (fold-activation of each estrogen divided by the value of E2) (elephant shark ERa3; ERa3 in HEK293, 10 nM) | Fold-Activation (±SEM) (elephant shark ERa3; ERa3 in HEK293, based on the 10 nM values, ratio to vehicle (DMSO), 2580 min) | EC50 (elephant shark ERa3; read-out: EC50 for transcriptional activation, ERa3 in HEK293, 4xERE luciferase reporter) [nM] | Ratio (fold-activation of each estrogen divided by the value of E2) (elephant shark ERa2; ERa2 in HEK293, 10 nM) | Fold-Activation (±SEM) (elephant shark ERa2; ERa2 in HEK293, based on the 10 nM values, ratio to vehicle (DMSO), 2580 min) | EC50 (elephant shark ERa2; read-out: EC50 for transcriptional activation, ERa2 in HEK293, 4xERE luciferase reporter) [nM] | EC50 (elephant shark ERa1) [nM] | Ratio (fold-activation of each estrogen divided by the value of E2) (elephant shark ERa1; ERa1 in HEK293, 10 nM) | fold induction at 0.01 µM (elephant shark ERa1; [2]) | EC50 (elephant shark ERb) [nM] | Ratio (fold-activation of each estrogen divided by the value of E2) (elephant shark ERb; ERb in HEK293, 10 nM) | fold induction at 0.01 µM (elephant shark ERb; [2]) | Activation of Atlantic sea lamprey ER (Atlantic sea lamprey ER) | Transcriptional activation of amphioxus SR [1] | Transcriptional activation of ERa4 (elephant shark ERa4) | Binding to amphioxus ER (amphioxus ER) |
| --- | --- | --- | --- | --- | --- | --- | --- | --- | --- | --- | --- | --- | --- | --- | --- | --- |
| C[C@]12CC[C@@H]3c4ccc(O)cc4CC[C@H]3[C@@H]1C[C@@H](O)[C@@H]2O [E3, estriol] | 1.07 | 1.87 (±0.15) | 0.29 | 1.02 | 1.82 (±0.13) | 0.31 | 0.2 | 0.95 | 1.57 | 0.02 | 1.08 | 3.49 |  |  |  |  |
| C[C@]12CC[C@@H]3c4ccc(O)cc4CC[C@H]3[C@@H]1CCC2=O [E1, Estrone] |  |  |  |  |  |  |  |  |  | 0.14 |  |  | activated | transcriptional activators |  |  |
| C[C@]12CC[C@@H]3c4ccc(O)cc4CC[C@H]3[C@@H]1CC[C@@H]2O [E2, 17b-estradiol] |  |  |  |  |  |  |  |  |  |  |  |  | activated | transcriptional activators | lack of transcriptional activation | does not bind |
